In patent publication US20230301300A1, “HERBICIDAL COMPOSITIONS” (SYNGENTA CROP PROTECTION AG, priority 2020, published 2023):

Assays:
Assay type in all cases: in vivo
[1] = tested on: Amaranthus retoflexus (AMARE); assay: B1 Post-Emergence Efficacy - Test 1; conditions: 1000 g/ha, after 13 days, five point scale
Outline: (§1)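 Seeds sown in standard soil grow for 8 days under glasshouse conditions (24/16° C., 14 hours light, 65% humidity). Seedlings are then sprayed at 1000 g/ha from an acetone/water (50:50), 0.5% Tween 20 formulation. Damage is rated after 13 days on a five-point scale.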

[2] = tested on: Echinochloa crus-galli (ECHCG); assay: B1 Post-Emergence Efficacy - Test 1; conditions: 1000 g/ha, after 13 days, five point scale
Outline: as §1

[3] = tested on: Ipomoea hederacea (IPOHE); assay: B1 Post-Emergence Efficacy - Test 1; conditions: 1000 g/ha, after 13 days, five point scale
Outline: as §1

[4] = tested on: Lolium perenne (LOLPE); assay: B1 Post-Emergence Efficacy - Test 1; conditions: 1000 g/ha, after 13 days, five point scale
Outline: as §1

[5] = tested on: Setaria faberi (SETFA); assay: B1 Post-Emergence Efficacy - Test 1; conditions: 1000 g/ha, after 13 days, five point scale
Outline: as §1

[6] = tested on: Solanum nigrum (SOLNI); assay: B1 Post-Emergence Efficacy - Test 1; conditions: 1000 g/ha, after 13 days, five point scale
Outline: as §1

[7] = tested on: Amaranthus retroflexus (AMARE); assay: B2 Post-Emergence Efficacy - Test 2; conditions: 15 days after application, 0-100 scale
Outline: (§2)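 Score 0–100 (0 none, 100 kill), 15 d after spraying. Treatment: IF50 formulation in aqueous spray, adjuvant Genapol X080 at 0.2% v/v, applied to plants 12 d after sowing. Glasshouse day/night 24/18 or 20/16 °C, 16 h light, 65% humidity.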

[8] = tested on: Avena fatua (AVEFA); assay: B2 Post-Emergence Efficacy - Test 2; conditions: 15 days after application, 0-100 scale
Outline: as §2

[9] = tested on: Brachiaria plantaginea (BRAPL); assay: B2 Post-Emergence Efficacy - Test 2; conditions: 15 days after application, 0=no damage, 100=total kill
Outline: as §2

[10] = tested on: Brassica napus (BRSNN); assay: B2 Post-Emergence Efficacy - Test 2; conditions: 15 days after application, 0-100 scale
Outline: as §2

[11] = tested on: Bromus tectorum (BROTE); assay: B2 Post-Emergence Efficacy - Test 2; conditions: 15 days after application, 0-100 scale
Outline: as §2

[12] = tested on: Chenopodium album (CHEAL); assay: B2 Post-Emergence Efficacy - Test 2; conditions: 15 days after application, 0-100 scale
Outline: as §2

[13] = tested on: Eleisine indica (ELEIN); assay: B2 Post-Emergence Efficacy - Test 2; conditions: 15 days after application, 0=no damage, 100=total kill
Outline: as §2

[14] = tested on: Hordeum vulgare (HORVW); assay: B2 Post-Emergence Efficacy - Test 2; conditions: 15 days after application, 0-100 scale
Outline: as §2

[15] = tested on: Kochia scoparia (KSHSC); assay: B2 Post-Emergence Efficacy - Test 2; conditions: 15 days after application, 0-100 scale
Outline: as §2

[16] = tested on: Setaria faberi (SETFA); assay: B2 Post-Emergence Efficacy - Test 2; conditions: 15 days after application, 0=no damage, 100=total kill
Outline: as §2

[17] = tested on: Stellaria media (STEME); assay: B2 Post-Emergence Efficacy - Test 2; conditions: 15 days after application, 0-100 scale
Outline: as §2

[18] = tested on: Zea mays (ZEAMX); assay: B2 Post-Emergence Efficacy - Test 2; conditions: 15 days after application; for Herbicidal activity ZEAMX: 0-100 scale; for Herbicidal activity on a 0-100 scale, ZEAMX: 0=no damage, 100=total kill
Outline: as §2

SMILES: Cc1nn(C)c(=O)c(-c2c(F)ccc(Cl)c2CCc2ccc(F)cc2)c1OC(=O)C(C)C [Compound 1.125, [5-[3-chloro-6-fluoro-2-[2-(4-fluorophenyl)ethyl]phenyl]-1,3-dimethyl-6-oxo-pyridazin-4-yl] 2-methylpropanoate]
- percentage damage caused to the plant, AMARE [1]: 5 (5=80-100%)
- percentage damage caused to the plant, ECHCG [2]: 5 (5=80-100%)
- percentage damage caused to the plant, IPOHE [3]: 5 (5=80-100%)
- percentage damage caused to the plant, LOLPE [4]: 5 (5=80-100%)
- percentage damage caused to the plant, SETFA [5]: 5 (5=80-100%)
- percentage damage caused to the plant, SOLNI [6]: 5 (5=80-100%)
- Herbicidal activity AMARE ([7]; 15 g/Ha): 80
- Herbicidal activity AMARE ([7]; 30 g/Ha): 90
- Herbicidal activity AMARE ([7]; 60 g/Ha): 90
- Herbicidal activity AMARE ([7]; 125 g/Ha): 100
- Herbicidal activity AMARE ([7]; 250 g/Ha): 100
- Herbicidal activity AMARE ([7]; 500 g/Ha): 100
- Herbicidal activity AVEFA ([8]; 15 g/Ha): 30
- Herbicidal activity AVEFA ([8]; 30 g/Ha): 40
- Herbicidal activity AVEFA ([8]; 60 g/Ha): 60
- Herbicidal activity AVEFA ([8]; 125 g/Ha): 70
- Herbicidal activity AVEFA ([8]; 250 g/Ha): 70
- Herbicidal activity AVEFA ([8]; 500 g/Ha): 80
- Herbicidal activity on a 0-100 scale, BRAPL ([9]; 15 g/Ha): 80
- Herbicidal activity on a 0-100 scale, BRAPL ([9]; 60 g/Ha): 80
- Herbicidal activity on a 0-100 scale, BRAPL ([9]; 125 g/Ha): 80
- Herbicidal activity on a 0-100 scale, BRAPL ([9]; 250 g/Ha): 70
- Herbicidal activity on a 0-100 scale, BRAPL ([9]; 500 g/Ha): 80
- Herbicidal activity BRSNN ([10]; 15 g/Ha): 80
- Herbicidal activity BRSNN ([10]; 30 g/Ha): 80
- Herbicidal activity BRSNN ([10]; 60 g/Ha): 80
- Herbicidal activity BRSNN ([10]; 125 g/Ha): 90
- Herbicidal activity BRSNN ([10]; 250 g/Ha): 90
- Herbicidal activity BRSNN ([10]; 500 g/Ha): 90
- Herbicidal activity BROTE ([11]; 15 g/Ha): 0
- Herbicidal activity BROTE ([11]; 30 g/Ha): 0
- Herbicidal activity BROTE ([11]; 60 g/Ha): 0
- Herbicidal activity BROTE ([11]; 125 g/Ha): 0
- Herbicidal activity BROTE ([11]; 250 g/Ha): 10
- Herbicidal activity BROTE ([11]; 500 g/Ha): 10
- Herbicidal activity CHEAL ([12]; 15 g/Ha): 90
- Herbicidal activity CHEAL ([12]; 30 g/Ha): 90
- Herbicidal activity CHEAL ([12]; 60 g/Ha): 90
- Herbicidal activity CHEAL ([12]; 125 g/Ha): 90
- Herbicidal activity CHEAL ([12]; 250 g/Ha): 90
- Herbicidal activity CHEAL ([12]; 500 g/Ha): 90
- Herbicidal activity on a 0-100 scale, ELEIN ([13]; 15 g/Ha): 40
- Herbicidal activity on a 0-100 scale, ELEIN ([13]; 30 g/Ha): 40
- Herbicidal activity on a 0-100 scale, ELEIN ([13]; 60 g/Ha): 70
- Herbicidal activity on a 0-100 scale, ELEIN ([13]; 125 g/Ha): 70
- Herbicidal activity on a 0-100 scale, ELEIN ([13]; 250 g/Ha): 80
- Herbicidal activity on a 0-100 scale, ELEIN ([13]; 500 g/Ha): 80
- Herbicidal activity HORVW ([14]; 15 g/Ha): 0
- Herbicidal activity HORVW ([14]; 30 g/Ha): 0
- Herbicidal activity HORVW ([14]; 60 g/Ha): 10
- Herbicidal activity HORVW ([14]; 125 g/Ha): 10
- Herbicidal activity HORVW ([14]; 250 g/Ha): 10
- Herbicidal activity HORVW ([14]; 500 g/Ha): 10
- Herbicidal activity KCHSC ([15]; 15 g/Ha): 0
- Herbicidal activity KCHSC ([15]; 30 g/Ha): 2
- Herbicidal activity KCHSC ([15]; 60 g/Ha): 30
- Herbicidal activity KCHSC ([15]; 125 g/Ha): 50
- Herbicidal activity KCHSC ([15]; 250 g/Ha): 60
- Herbicidal activity KCHSC ([15]; 500 g/Ha): 70
- Herbicidal activity on a 0-100 scale, SETFA ([16]; 15 g/Ha): 0
- Herbicidal activity on a 0-100 scale, SETFA ([16]; 30 g/Ha): 10
- Herbicidal activity on a 0-100 scale, SETFA ([16]; 60 g/Ha): 20
- Herbicidal activity on a 0-100 scale, SETFA ([16]; 125 g/Ha): 20
- Herbicidal activity on a 0-100 scale, SETFA ([16]; 250 g/Ha): 20
- Herbicidal activity on a 0-100 scale, SETFA ([16]; 500 g/Ha): 100
- Herbicidal activity STEME ([17]; 15 g/Ha): 90
- Herbicidal activity STEME ([17]; 30 g/Ha): 90
- Herbicidal activity STEME ([17]; 60 g/Ha): 90
- Herbicidal activity STEME ([17]; 125 g/Ha): 90
- Herbicidal activity STEME ([17]; 250 g/Ha): 90
- Herbicidal activity STEME ([17]; 500 g/Ha): 90
- Herbicidal activity ZEAMX ([18]; 15 g/Ha): 0
- Herbicidal activity on a 0-100 scale, ZEAMX ([18]; 15 g/Ha): 0
- Herbicidal activity ZEAMX ([18]; 30 g/Ha): 20
- Herbicidal activity on a 0-100 scale, ZEAMX ([18]; 30 g/Ha): 20
- Herbicidal activity ZEAMX ([18]; 60 g/Ha): 30
- Herbicidal activity on a 0-100 scale, ZEAMX ([18]; 60 g/Ha): 30
- Herbicidal activity ZEAMX ([18]; 125 g/Ha): 20
- Herbicidal activity on a 0-100 scale, ZEAMX ([18]; 125 g/Ha): 20
- Herbicidal activity ZEAMX ([18]; 250 g/Ha): 40
- Herbicidal activity on a 0-100 scale, ZEAMX ([18]; 250 g/Ha): 40
- Herbicidal activity ZEAMX ([18]; 500 g/Ha): 70
- Herbicidal activity on a 0-100 scale, ZEAMX ([18]; 500 g/Ha): 70
